In patent publication US6479435B1, “Diaryl ethers and processes for their preparation and herbicidal and desiccant compositions containing them” (ISK Americas Incorporated, priority 1997, dated 2002):

Experiments:
Assay type in all cases: in vivo
[1] = test system: soybean (Glycine max L., var. Pella 86, SOY); assay: Post-emerge greenhouse test, crop damage rating; parameters: key to crop damage rating SOY: 0-100 scale: 0 = no damage, 100 = complete death of all plants; conditions: 14 days after application, scale 0-100
In short: (§1)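 Plants at the 2-3 leaf stage, sown 8-21 days earlier, were track-sprayed post-emergence with compound in acetone plus 0.25% v/v non-ionic surfactant at 63-1000 g ai/ha (187 l/ha). Damage was rated at 14 days on a 0-100 scale (0 none, 100 all plants dead), for both crop injury and weed control.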

[2] = test system: redroot pigweed (Amaranthus retroflexus, AMARE); assay: Post-emerge greenhouse herbicide test, phytotoxicity rating; conditions: 14 days after application, scale 0-100
In short: as §1

[3] = test system: green foxtail (Setaria viridis, SETVI); assay: as above; conditions: 14 days after application, scale 0-100
In short: as §1

[4] = test system: lambsquarters (Chenopodium album, CHEAL); assay: as above; conditions: 14 days after application, scale 0-100
In short: as §1

[5] = test system: large crabgrass (Digitaria sanguinalis, DIGSA); assay: as above; conditions: 14 days after application, scale 0-100
In short: as §1

[6] = test system: velvetleaf (Abutilon theophrasti, ABUTH); assay: as above; conditions: 14 days after application, scale 0-100
In short: as §1

[7] = test system: Johnsongrass (Sorghum halepense, SORHA); assay: as above; conditions: 14 days after application, scale 0-100
In short: as §1

[8] = test system: barnyardgrass (Echinochloa crusgalli, ECHCG); assay: as above; conditions: 14 days after application, scale 0-100
In short: as §1

[9] = test system: ivyleaf morningglory (Ipomoea hederacea, IPOHE); assay: as above; conditions: 14 days after application, scale 0-100
In short: as §1

[10] = test system: sicklepod (Cassia obtusifolia, CASOB); assay: as above; conditions: 14 days after application, scale 0-100
In short: as §1

[11] = test system: upland rice (Oryza sp., var.Tebonnet, RICE); assay: Pre-emerge greenhouse test, crop damage rating; conditions: 14 days after application, rating scale 0-100
In short: (§2)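 Seeds sown in sandy loam one day before track-sprayer application of acetone solutions at 125–1000 g ai/ha (187 l/ha), then surface-watered to incorporate and bottom-watered. Injury scored visually at 14 days on a 0–100 scale (0 no damage, 100 complete death).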

[12] = test system: field corn (Zea mays L., var. Dekalb 535, CORN); assay: Pre-emerge greenhouse test, crop damage rating; conditions: 14 days after application, rating scale 0-100
In short: as §2

[13] = test system: redroot pigweed (Amaranthus retroflexus, AMARE); assay: Pre-emerge greenhouse herbicide test, phytotoxicity rating; conditions: 14 days after application, rating scale 0-100
In short: as §2

[14] = test system: green foxtail (Setaria viridis, SETVI); assay: as above; conditions: 14 days after application, rating scale 0-100
In short: as §2

[15] = test system: lambsquarters (Chenopodium album, CHEAL); assay: as above; conditions: 14 days after application, rating scale 0-100
In short: as §2

[16] = test system: large crabgrass (Digitaria sanguinalis, DIGSA); assay: as above; conditions: 14 days after application, rating scale 0-100
In short: as §2

[17] = test system: velvetleaf (Abutilon theophrasti, ABUTH); assay: as above; conditions: 14 days after application, rating scale 0-100
In short: as §2

[18] = test system: Johnsongrass (Sorghum halepense, SORHA); assay: as above; conditions: 14 days after application, rating scale 0-100
In short: as §2

[19] = test system: common ragweed (Ambrosia artemisiifolia L., AMBEL); assay: as above; conditions: 14 days after application, rating scale 0-100
In short: as §2

[20] = test system: barnyardgrass (Echinochloa crusgalli, ECHCG); assay: as above; conditions: 14 days after application, rating scale 0-100
In short: as §2

[21] = test system: ivyleaf morningglory (Ipomoea hederacea, IPOHE); assay: as above; conditions: 14 days after application, rating scale 0-100
In short: as §2

[22] = test system: sicklepod (Cassia obtusifolia, CASOB); assay: as above; conditions: 14 days after application, rating scale 0-100
In short: as §2

[23] = test system: common ragweed (Ambrosia artemisiifolia L., AMBEL); assay: Post-emerge greenhouse herbicide test, phytotoxicity rating; conditions: 14 days after application, scale 0-100
In short: as §1

[24] = test system: soybean (Glycine max L., var. Pella 86, SOY); assay: Pre-emerge greenhouse test, crop damage rating; parameters: key to SOY crop damage rating: 0 = no damage, 100 = complete death of all plants; conditions: 14 days after application, rating scale 0-100
In short: as §2

[25] = test system: upland rice (Oryza sp., var.Tebonnet, RICE); assay: Post-emerge greenhouse test, crop damage rating; conditions: 14 days after application, scale 0-100
In short: as §1

[26] = test system: field corn (Zea mays L., var. Dekalb 535, CORN); assay: Post-emerge greenhouse test, crop damage rating; conditions: 14 days after application, scale 0-100
In short: as §1

SMILES: COc1nc(OC)nc(Oc2cc(-n3c(=O)n4n(c3=S)CCCC4)c(F)cc2Cl)n1 [Compound 8-34]
- crop damage rating SOY ([1]; rate 63 g ai/ha): 50
- crop damage rating SOY ([1]; rate 500 g ai/ha): 90
- phytotoxicity rating AMARE ([2]; rate 63 g ai/ha): 50
- phytotoxicity rating AMARE ([2]; rate 500 g ai/ha): 100
- phytotoxicity rating SETVI ([3]; rate 63 g ai/ha): 20
- phytotoxicity rating SETVI ([3]; rate 500 g ai/ha): 65
- phytotoxicity rating CHEAL ([4]; rate 63 g ai/ha): 95
- phytotoxicity rating CHEAL ([4]; rate 500 g ai/ha): 100
- phytotoxicity rating DIGSA ([5]; rate 63 g ai/ha): 0
- phytotoxicity rating DIGSA ([5]; rate 500 g ai/ha): 40
- phytotoxicity rating ABUTH ([6]; rate 63 g ai/ha): 95
- phytotoxicity rating ABUTH ([6]; rate 500 g ai/ha): 100
- phytotoxicity rating SORHA ([7]; rate 63 g ai/ha): 0
- phytotoxicity rating SORHA ([7]; rate 500 g ai/ha): 50
- phytotoxicity rating ECHCG ([8]; rate 63 g ai/ha): 10
- phytotoxicity rating ECHCG ([8]; rate 500 g ai/ha): 0
- phytotoxicity rating IPOHE ([9]; rate 63 g ai/ha): 100
- phytotoxicity rating IPOHE ([9]; rate 500 g ai/ha): 100
- phytotoxicity rating CASOB ([10]; rate 63 g ai/ha): 30
- phytotoxicity rating CASOB ([10]; rate 500 g ai/ha): 100
- RICE crop damage rating ([11]; Rate 125 g al/ha): 20
- RICE crop damage rating ([11]; Rate 500 g al/ha): 50
- CORN crop damage rating ([12]; Rate 125 g al/ha): 0
- CORN crop damage rating ([12]; Rate 500 g al/ha): 5
- AMARE phytotoxicity rating ([13]; Rate 125 g al/ha): 100
- AMARE phytotoxicity rating ([13]; Rate 500 g al/ha): 100
- SETVI phytotoxicity rating ([14]; Rate 125 g al/ha): 80
- SETVI phytotoxicity rating ([14]; Rate 500 g al/ha): 99
- CHEAL phytotoxicity rating ([15]; Rate 125 g al/ha): 100
- CHEAL phytotoxicity rating ([15]; Rate 500 g al/ha): 100
- DIGSA phytotoxicity rating ([16]; Rate 125 g al/ha): 10
- DIGSA phytotoxicity rating ([16]; Rate 500 g al/ha): 80
- ABUTH phytotoxicity rating ([17]; Rate 125 g al/ha): 100
- ABUTH phytotoxicity rating ([17]; Rate 500 g al/ha): 100
- SORHA phytotoxicity rating ([18]; Rate 125 g al/ha): 20
- SORHA phytotoxicity rating ([18]; Rate 500 g al/ha): 80
- AMBEL phytotoxicity rating ([19]; Rate 125 g al/ha): 40
- AMBEL phytotoxicity rating ([19]; Rate 500 g al/ha): 100
- ECHCG phytotoxicity rating ([20]; Rate 125 g al/ha): 0
- ECHCG phytotoxicity rating ([20]; Rate 500 g al/ha): 40
- IPOHE phytotoxicity rating ([21]; Rate 125 g al/ha): 0
- IPOHE phytotoxicity rating ([21]; Rate 500 g al/ha): 80
- CASOB phytotoxicity rating ([22]; Rate 125 g al/ha): 0
- CASOB phytotoxicity rating ([22]; Rate 500 g al/ha): 40
- phytotoxicity rating AMBEL ([23]; rate 63 g ai/ha): 50
- phytotoxicity rating AMBEL ([23]; rate 500 g ai/ha): 95
- SOY crop damage rating ([24]; Rate 125 g al/ha): 10
- SOY crop damage rating ([24]; Rate 500 g al/ha): 0
- crop damage rating RICE ([25]; rate 63 g ai/ha): 0
- crop damage rating RICE ([25]; rate 500 g ai/ha): 40
- crop damage rating CORN ([26]; rate 63 g ai/ha): 5
- crop damage rating CORN ([26]; rate 500 g ai/ha): 15

SMILES: COc1cc(OC)nc(Oc2cc(-n3c(=O)n4n(c3=S)CCCC4)c(F)cc2Cl)n1 [Compound 8-33]
- crop damage rating SOY ([1]; rate 63 g ai/ha): 55
- crop damage rating SOY ([1]; rate 500 g ai/ha): 70
- phytotoxicity rating AMARE ([2]; rate 63 g ai/ha): 95
- phytotoxicity rating AMARE ([2]; rate 500 g ai/ha): 100
- phytotoxicity rating SETVI ([3]; rate 63 g ai/ha): 20
- phytotoxicity rating SETVI ([3]; rate 500 g ai/ha): 80
- phytotoxicity rating CHEAL ([4]; rate 63 g ai/ha): 90
- phytotoxicity rating CHEAL ([4]; rate 500 g ai/ha): 100
- phytotoxicity rating DIGSA ([5]; rate 63 g ai/ha): 0
- phytotoxicity rating DIGSA ([5]; rate 500 g ai/ha): 50
- phytotoxicity rating ABUTH ([6]; rate 63 g ai/ha): 100
- phytotoxicity rating ABUTH ([6]; rate 500 g ai/ha): 100
- phytotoxicity rating SORHA ([7]; rate 63 g ai/ha): 10
- phytotoxicity rating SORHA ([7]; rate 500 g ai/ha): 30
- phytotoxicity rating ECHCG ([8]; rate 63 g ai/ha): 20
- phytotoxicity rating ECHCG ([8]; rate 500 g ai/ha): 40
- phytotoxicity rating IPOHE ([9]; rate 63 g ai/ha): 90
- phytotoxicity rating IPOHE ([9]; rate 500 g ai/ha): 100
- phytotoxicity rating CASOB ([10]; rate 63 g ai/ha): 55
- phytotoxicity rating CASOB ([10]; rate 500 g ai/ha): 95
- RICE crop damage rating ([11]; Rate 500 g al/ha): 10
- CORN crop damage rating ([12]; Rate 500 g al/ha): 0
- AMARE phytotoxicity rating ([13]; Rate 125 g al/ha): 100
- AMARE phytotoxicity rating ([13]; Rate 500 g al/ha): 100
- SETVI phytotoxicity rating ([14]; Rate 125 g al/ha): 80
- SETVI phytotoxicity rating ([14]; Rate 500 g al/ha): 100
- CHEAL phytotoxicity rating ([15]; Rate 125 g al/ha): 100
- CHEAL phytotoxicity rating ([15]; Rate 500 g al/ha): 100
- DIGSA phytotoxicity rating ([16]; Rate 125 g al/ha): 10
- DIGSA phytotoxicity rating ([16]; Rate 500 g al/ha): 90
- ABUTH phytotoxicity rating ([17]; Rate 125 g al/ha): 100
- ABUTH phytotoxicity rating ([17]; Rate 500 g al/ha): 100
- SORHA phytotoxicity rating ([18]; Rate 125 g al/ha): 0
- SORHA phytotoxicity rating ([18]; Rate 500 g al/ha): 40
- AMBEL phytotoxicity rating ([19]; Rate 125 g al/ha): 0
- AMBEL phytotoxicity rating ([19]; Rate 500 g al/ha): 40
- ECHCG phytotoxicity rating ([20]; Rate 125 g al/ha): 0
- ECHCG phytotoxicity rating ([20]; Rate 500 g al/ha): 20
- IPOHE phytotoxicity rating ([21]; Rate 125 g al/ha): 0
- IPOHE phytotoxicity rating ([21]; Rate 500 g al/ha): 70
- CASOB phytotoxicity rating ([22]; Rate 125 g al/ha): 40
- CASOB phytotoxicity rating ([22]; Rate 500 g al/ha): 90
- phytotoxicity rating AMBEL ([23]; rate 63 g ai/ha): 60
- phytotoxicity rating AMBEL ([23]; rate 500 g ai/ha): 100
- SOY crop damage rating ([24]; Rate 125 g al/ha): 0
- SOY crop damage rating ([24]; Rate 500 g al/ha): 30
- crop damage rating RICE ([25]; rate 63 g ai/ha): 0
- crop damage rating RICE ([25]; rate 500 g ai/ha): 10
- crop damage rating CORN ([26]; rate 63 g ai/ha): 5
- crop damage rating CORN ([26]; rate 500 g ai/ha): 15
